Here are results for 23 compounds from PubChem BioAssay (NCI).

Assay in all cases: NCI-60 cell line screen, 48 h
Assay [1] concerns SK-MEL-2 melanoma.
In assay [2] the test system is PC-3 prostate.
The test system of assay [3] is OVCAR-3 ovarian.
The test system of assay [4] is NCI-H522 lung.
In assay [5] the test system is MDA-MB-435.
For assay [6], the system named is COLO 205 colon.
Assay [7] has as its system NCI-H23 lung.
Assay [8] deals with M14 melanoma.
Assay [9] concerns SN12C renal.
For assay [10], the system named is OVCAR-8 ovarian.

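Method: 48-hour compound exposure of cells in 96-well plates, five concentrations, linear interpolation of endpoints. The concentration for 50% growth inhibition is given as GI50. TGI denotes the concentration required for complete inhibition of growth.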 Some results are limits rather than exact numbers.

Turning to `O=C1OC(O)[C@@H]2[C@H]1[C@H]1CC[C@@H]2O1` (stereo partly specified), the GI50 in [1] is 39 µM; in [2], greater than 100 µM; in [3], 32.8 µM; in assay [4] it was 26.3 µM; in assay [5], greater than 100 µM; in assay [6], 1.21 µM. Further, the GI50 in assay [7] is greater than 100 µM; in assay [8] it was 84.5 µM; in [9] it was greater than 92.3 µM; in [10], greater than 100 µM. Also, the TGI in [1] is greater than 82.4 µM; in assay [2] it was greater than 100 µM; in assay [3] it was 69.2 µM; in [4], 74.9 µM; in [5], greater than 100 µM; in assay [6], 6.31 µM. The TGI in assay [7], in assay [8], in assay [9] and in assay [10] was greater than 100 µM each time.
Take `Cc1cc(/C=C/c2ccc3cc(N(C)C)ccc3[n+]2C)c(C)n1-c1ccccc1`: the GI50 in [1] was 0.27 µM; in assay [2], 0.13 µM; in assay [3] it was 0.197 µM; in [4], 0.103 µM; in assay [5] it was 0.177 µM; in assay [6], 0.103 µM. For the same compound, the GI50 in assay [7] was 0.082 µM; in assay [8], 0.3 µM; in assay [9] it was 0.159 µM; in assay [10], 0.143 µM. Also, the TGI in [1] turned out to be 1.06 µM; in assay [2] it was 0.765 µM; in assay [3], 1.42 µM; in assay [4], 0.989 µM; in assay [5], 0.8 µM; in assay [6], 0.213 µM. The TGI in [7] was found to be 1.76 µM; in [8] it was 1.25 µM; in assay [9] it was 0.636 µM; in [10] it was 0.76 µM.
As to `COc1cc2c3c(n(C)c(=O)c2cc1OC)-c1cc2c(cc1/C3=C\CCCN)OCO2`, the GI50 was 16.6 µM in assay [1]; 3.31 µM in assay [2]; 13.8 µM in assay [3]; 0.61 µM in assay [4]; 8.6 µM in assay [5]; 7.67 µM in assay [6]. The GI50 is 8.07 µM in assay [7], 12.4 µM in assay [8] and 10.1 µM in [10]. The TGI in assay [1] is 45 µM; in assay [2], 31.9 µM; in assay [3], 29.8 µM; in [4], 23.4 µM; in assay [5] it was 41.6 µM; in [6] it was greater than 100 µM. For the same compound, the figures for the TGI in assay [7], in assay [8] and in assay [10] were greater than 100 µM, greater than 100 µM and 22.4 µM, respectively.
As to `Cc1cccc(NC(=O)Cn2cnc3sc(C(=O)OC(C)C)c(C)c3c2=O)c1`, the GI50 in [1] was 16 µM; in assay [2], greater than 50 µM; in [3] it was 33.4 µM; in [4] it was 12.3 µM; in assay [5] it was greater than 50 µM; in assay [6], greater than 50 µM. Also, the GI50 is greater than 50 µM in [8], 7.66 µM in [9] and 17.4 µM in assay [10]. Further, the TGI in assay [1] was greater than 50 µM; in [2], greater than 50 µM; in assay [3], greater than 50 µM; in [4], 44.6 µM; in assay [5] it was greater than 50 µM; in assay [6], greater than 50 µM. Besides, the TGI in assay [8] was greater than 50 µM; in assay [9], 22.3 µM; in [10], greater than 50 µM.
`O=[N+]([O-])C(/C=C(\Cl)n1nnc2ccccc21)=C(/Cl)n1nnc2ccccc21`: the TGI in [1], in [2], in assay [3], in assay [4], in [5] and in [6] was greater than 100 µM throughout. Moreover, the TGI in assay [7], in [8] and in assay [9] was greater than 100 µM each time.
As for `O=S1(=O)OCCOS(=O)(=O)C1Br`, the TGI in assay [1], in assay [3], in [4], in assay [6], in assay [7] and in assay [8] was greater than 100 µM each time. Moreover, the TGI in assay [9] and in assay [10] was greater than 100 µM each time.
As to `CN(C)c1ccc(/C=C(\NC(=O)c2ccccc2)c2nc3ncncc3[nH]2)cc1`, the TGI in assay [1], in assay [3], in assay [4], in [6], in assay [7] and in assay [8] was greater than 100 µM each time. In addition, the TGI in assay [9] and in assay [10] was greater than 100 µM throughout.
On to `COc1cc2c(c(OC)c1OC)-c1ccc(OC)c(=O)cc1C(NC(=O)c1ccc(N=[N+]=[N-])cc1)CC2` (stereo unspecified), for which the TGI was 0.0555 µM in assay [3]; 0.0387 µM in assay [4]; 0.0473 µM in assay [5]; 0.0627 µM in assay [6]; greater than 100 µM in assay [7]; 31.2 µM in assay [8]. Moreover, the TGI in assay [9] is greater than 41.9 µM; in [10], 1.02 µM.
Regarding `COc1cc(C2c3cc4c(cc3OC(C)(O)C2C)OCO4)cc(OC)c1OC` (stereo unspecified), the TGI was greater than 100 µM in assay [2]; greater than 100 µM in [3]; 1.19 µM in assay [4]; greater than 100 µM in assay [5]; greater than 100 µM in [6]; greater than 100 µM in [7]. The TGI in assay [9] and in assay [10] was greater than 100 µM each time.
On to `CCCCCCN(CCCCCC)C(=O)Cc1c2n(c3ccccc13)Cc1ccccc1-2`, for which the TGI in assay [1], in assay [3], in assay [4], in assay [6], in assay [7] and in assay [8] was greater than 100 µM in each case. Besides, the TGI in assay [9] and in assay [10] was greater than 100 µM in each case.
As for `CN(C)c1nc(=Nc2ccc(N=c3nc(N(C)C)ss3)cc2)ss1`, the TGI in assay [1] was greater than 100 µM; in assay [3], greater than 78.6 µM; in [4], 25.8 µM; in assay [6] it was 70.6 µM; in [7], 20.1 µM; in assay [8], 25.6 µM. Moreover, the TGI was greater than 92.3 µM in assay [9] and 34.2 µM in assay [10].
As for `C/C(=N\NC(=S)NC(CCC(=O)O)C(=O)O)c1ccccn1` (stereo unspecified), the TGI in assay [1], in assay [3], in assay [4], in assay [6], in [7] and in assay [8] was greater than 100 µM throughout. Further, the TGI in assay [9] and in assay [10] was greater than 100 µM in each case.
With `C=C1NC(=O)C(C(C)CC)NC(=O)C2CSCC(NC(=O)CCC(=O)O)C(=O)NC(Cc3ccccc3)C(=O)NC(C)C(=O)NC(CC(C)CC)C(=O)NC(C(=O)NC(Cc3ccccc3)C(=O)N3CCCC3C(=O)N2)C(C)OC(=O)C(CO)NC(=O)C(C(O)COC)N(C)C(=O)C(C(C)C)NC(=O)C(CC(C)CC)NC1=O` (stereo unspecified), the GI50 in assay [1] is 0.00485 µM; in [2] it was 0.0265 µM; in assay [3], 0.0118 µM; in assay [4], 0.00411 µM; in assay [6], 0.0129 µM; in [7], 0.1 µM. Also, the results for the GI50 in assay [8], in assay [9] and in [10] were 0.00878 µM, 0.0707 µM and 0.0678 µM, respectively. For the same compound, the TGI in assay [1] is greater than 6 µM; in [2], greater than 6 µM; in assay [4], 0.359 µM; in assay [6] it was 0.0557 µM; in assay [7], greater than 6 µM; in [8] it was 0.0391 µM. Also, the TGI in assay [9] and in assay [10] was greater than 6 µM each time.
As for `Cc1cc(-c2ccc3nc(C4CCOCC4)n(CCOC(F)(F)F)c3c2)cn(C)c1=O`, the GI50 in [1] is 0.988 µM; in assay [2] it was 1.04 µM; in assay [4], 0.244 µM; in assay [5], 0.21 µM; in [7] it was 0.518 µM; in assay [9], 1.22 µM. The GI50 in assay [10] was 0.952 µM. The TGI in assay [1] is 15.5 µM; in assay [3], 3.94 µM; in assay [4], 9.31 µM; in assay [5], greater than 47.5 µM; in [6] it was 2.97 µM; in assay [7] it was 12.8 µM. Besides, the TGI in assay [9] was found to be 31.1 µM.
Turning to `CC1=CC(O)(c2ccc(-c3ccccc3Cl)cc2)OC1=O` (stereo unspecified), the TGI in assay [1], in [3], in assay [4], in [6], in [7] and in assay [8] was greater than 100 µM each time. Besides, the TGI in assay [9] and in assay [10] was greater than 100 µM throughout.
For `COc1cc2c3c(n(C)c(=O)c2cc1OC)-c1cc2c(cc1/C3=C\CCN)OCO2`, the GI50 was 6.11 µM in assay [1]; 0.324 µM in assay [2]; 0.564 µM in assay [3]; 0.851 µM in assay [4]; 0.538 µM in assay [5]; 0.975 µM in [6]. Also, the GI50 was 0.22 µM in assay [8], 0.583 µM in assay [9] and 0.169 µM in [10]. The TGI in [1] is 27 µM; in [2], 2.94 µM; in assay [3], 5.09 µM; in [4] it was greater than 100 µM; in assay [5], 9.56 µM; in assay [6], greater than 100 µM. In addition, the TGI worked out at 4.82 µM in [8], 17.6 µM in assay [9] and 5.65 µM in assay [10].
`COc1cc(OC)cc(-c2cc(=O)c3c(OC)c(OC)c(OC)c(OC)c3o2)c1`: the TGI is 55.1 µM in assay [1]; greater than 100 µM in assay [3]; 51.1 µM in [4]; greater than 100 µM in [5]; 30.6 µM in assay [6]; greater than 100 µM in assay [7]. Moreover, the TGI in assay [8], in [9] and in assay [10] was greater than 100 µM throughout.
Turning to `C[Si](C)(C)C1(Sc2ccccc2)SCCCS1`, the TGI in assay [1] is greater than 100 µM; in [3] it was greater than 100 µM; in assay [4] it was 68.6 µM; in [6], greater than 100 µM; in [7], greater than 100 µM; in assay [8] it was greater than 100 µM. Besides, the TGI in [9] and in assay [10] was greater than 100 µM throughout.
As to `COc1cc(/C=C2\CN(S(=O)(=O)c3ccccc3)C/C(=C\c3cc(CN4CCCC4)c(O)c(OC)c3)C2=O)cc(CN2CCCC2)c1O`, the GI50 in [1] is 2.03 µM; in assay [2] it was 1.41 µM; in assay [3], 1.02 µM; in [4] it was 0.318 µM; in assay [9], 1.08 µM; in assay [10] it was 1.31 µM. The TGI in [1] is 5.02 µM; in assay [2], 3.91 µM; in [3], 3.05 µM; in [4], 2.11 µM; in assay [9], 3.22 µM; in assay [10], greater than 100 µM.
Consider `CSc1nc(NC2OCC(OC(C)=O)C(OC(C)=O)C2OC(C)=O)c(N=CC=Nc2c(NC3OCC(OC(C)=O)C(OC(C)=O)C3OC(C)=O)nc(SC)[nH]c2=O)c(=O)[nH]1` (stereo unspecified), for which the TGI is greater than 100 µM in assay [1]; greater than 100 µM in assay [3]; greater than 83.8 µM in assay [4]; greater than 100 µM in assay [5]; greater than 100 µM in [6]; greater than 100 µM in assay [7]. In addition, the TGI in assay [8], in assay [9] and in [10] was greater than 100 µM in each case.
On to `Brc1ccccc1C1SCc2nc3ccccc3n21` (stereo unspecified), for which the TGI in assay [1] turned out to be 32.5 µM; in [3], 26.7 µM; in [4], 33.9 µM; in assay [6], 32.1 µM; in assay [7], 33.3 µM; in [8], 31.4 µM. Moreover, the TGI stood at 25.8 µM in assay [9] and 57.1 µM in [10].
Take `CC(C)(C)OC(=O)N[C@H]1CC2(C=C(Cl)C(=O)C(Cl)=C2)OC1=O`: the TGI in [1] was found to be 41.7 µM; in assay [2], 32.1 µM; in assay [3], 28.1 µM; in [4], 7.18 µM; in [6], 14.9 µM; in assay [7], 33.7 µM. In addition, the TGI in assay [8] is 33.7 µM; in assay [9], 33.3 µM; in [10], 34.5 µM.
Turning to `CCOC(=O)CC(=O)ON(C)C(C)=O`, the TGI in [1], in assay [3], in [4], in assay [6], in [7] and in assay [8] was greater than 100 µM each time. Further, the TGI in [9] and in assay [10] was greater than 100 µM throughout.
